In general, IC50 refers to the concentration needed to halve the response being measured. A lower IC50 goes with greater potency. What is called Ki is the equilibrium dissociation constant of an inhibitor or competing ligand from its target. High values mean a looser hold on the target, low ones a stronger hold on the target.

The experiment deals with Beta-secretase 1 (Homo sapiens, UniProt P56817). Nature of the experiment: Time-Resolved FRET Assay: A homogeneous time-resolved FRET assay was used to determine IC50 values for inhibitors of the soluble human BACE1 catalytic domain. The assay monitored the increase of 620nm fluorescence that resulted from BACE1 cleavage of an APPswedish APPswe mutant peptide FRET substrate (QSY7-EISEVNLDAEFC-Europium-amide).
Sequence of Beta-secretase 1 (P56817 whole entry, the tested form may be a part): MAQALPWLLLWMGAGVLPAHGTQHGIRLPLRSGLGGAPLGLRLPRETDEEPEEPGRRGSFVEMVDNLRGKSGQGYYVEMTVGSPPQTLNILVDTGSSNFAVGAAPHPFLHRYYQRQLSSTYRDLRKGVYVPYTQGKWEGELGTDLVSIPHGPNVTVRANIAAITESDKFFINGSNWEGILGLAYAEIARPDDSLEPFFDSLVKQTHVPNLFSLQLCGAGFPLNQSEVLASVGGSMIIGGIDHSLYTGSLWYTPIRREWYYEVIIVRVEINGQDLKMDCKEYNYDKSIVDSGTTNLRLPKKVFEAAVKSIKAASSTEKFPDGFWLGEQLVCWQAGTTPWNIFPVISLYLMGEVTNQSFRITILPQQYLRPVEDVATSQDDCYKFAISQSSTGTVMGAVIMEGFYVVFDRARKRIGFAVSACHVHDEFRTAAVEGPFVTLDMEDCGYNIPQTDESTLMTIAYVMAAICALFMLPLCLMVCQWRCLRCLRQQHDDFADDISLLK

`COc1nc(N2C[C@H]3C(=O)N(C)C(=N)N[C@@]3(c3cc(F)ccc3Cl)C2)nc(C)c1F` displayed a half-maximal inhibitory concentration (IC50) of 42 nM and a Ki of 8.9 nM.

The record behind these values is ChEMBL document CHEMBL3638861, “Phenyl-substituted 2-imino-3-methyl pyrrolo pyrimidinone compounds as BACE-1 inhibitors, compositions, and their use” (2013).
